# Measurements: patent publication US10800807B2, “TGR5 modulators and methods of use thereof” (Intercept Pharmaceuticals, Inc., priority 2015, dated 2020)
# Read-outs that look alike come from different tables or passages of the source.
# How the values were obtained:
# [1] = Water solubility; format: physicochemical; settings: 0.1 M HCl, pH 1.00, 25° C., read-out: Ws
# Description: BA were suspended in 100 ml of 0.1 M HCl, pH 1.00, and the saturated solutions were transferred to a thermostat-equipped water bath maintained at 25° C. After incubation for 1 week, the solutions were filtered on a Millipore filter ([…]), and the concentration of BA was measured by HPLC-ESMS/MS as reported below.
# [2] = Critical micellar concentration (surface tension / dye solubilization); format: physicochemical; settings: for CMC: BA sodium salts in 0.1 M NaCl, 25° C.; for STCMC: surface tension at CMC
# Description: In the first method, the surface tension was performed by maximum bubble-pressure method using a Sensadyne 6000 tensiometer (Chem-Dyne Research Corp., Milwaukee, Wis.). The surface tension of aqueous solutions at various concentrations (range 0.1-100 mM) of the BA sodium salts in 0.1 M NaCl was measured at 25° C. The surface tension values were plotted against the logarithm of the bile salt concentration; the regression lines corresponding to the two parts of the curve (monomeric and micellar phases) were calculated using the method of least squares. The critical micellar concentration (CMC) value (mM) was obtained by the intersection of the two lines.
# The second method is based on the fact that some dyes, specifically Orange OT ([…]), are almost insoluble in water but dissolve in solutions with micellar aggregates that incorporate them; thus, the intensity of color of the solution increases with bile salt concentration (after CMC achievement). The amount of dye solubilized in relation to bile salt concentration was determined spectrophotometrically.
# For each bile acid, various solution at different concentrations, between 50 mM and 0.1 mM with appropriate dilutions, were incubated under stirring at room temperature for 3 days with an excess of Orange OT. Then all the solutions were centrifuged and filtered through a 0.22 μm Millipore fiiter (Millipore Corp., Bedford, Mass.).
# [3] = Lipophilicity, 1-octanol/water partition coefficient (shake-flask); format: physicochemical; settings: pH 8.00, ionized BA
# Description: The experiments were carried out on 1 mM initial bile salt solution buffered at pH 8.00 with 0.1 M potassium phosphate buffer to ensure complete ionization of the BA. BA concentration in the water phase before and after partition in 1-octanol was measured by HPLC-ESMS/MS as reported below.
# [4] = molecular target: bovine serum albumin (Bos taurus, UniProt P02769); experiment: Albumin binding by equilibrium dialysis; format: in vitro ADME; settings: 5% bovine serum albumin saline solution, 25° C.
# Description: BA was dissolved at a concentration of […] in 5% bovine serum albumin saline solution and left to stand for 24 hours at 25° C. Two milliliters of this solution was dialyzed in cellulose sacs with a molecular weight cut-off of 12-14 kDa (Spectra/Por; Spectrum Medical Industries Inc., Rancho Dominguez, Calif.) against 25 ml of saline solution. The system was equilibrated by mechanical shaking for 72 hours at 25° C. BA concentrations in the starting solution and in the dialyzed solution were determined by HPLC-ES-MS/MS as reported below.
# [5] = pKa
# [6] = Critical micellar concentration (surface tension / dye solubilization); format: physicochemical
# Sequence of bovine serum albumin (P02769 25-607): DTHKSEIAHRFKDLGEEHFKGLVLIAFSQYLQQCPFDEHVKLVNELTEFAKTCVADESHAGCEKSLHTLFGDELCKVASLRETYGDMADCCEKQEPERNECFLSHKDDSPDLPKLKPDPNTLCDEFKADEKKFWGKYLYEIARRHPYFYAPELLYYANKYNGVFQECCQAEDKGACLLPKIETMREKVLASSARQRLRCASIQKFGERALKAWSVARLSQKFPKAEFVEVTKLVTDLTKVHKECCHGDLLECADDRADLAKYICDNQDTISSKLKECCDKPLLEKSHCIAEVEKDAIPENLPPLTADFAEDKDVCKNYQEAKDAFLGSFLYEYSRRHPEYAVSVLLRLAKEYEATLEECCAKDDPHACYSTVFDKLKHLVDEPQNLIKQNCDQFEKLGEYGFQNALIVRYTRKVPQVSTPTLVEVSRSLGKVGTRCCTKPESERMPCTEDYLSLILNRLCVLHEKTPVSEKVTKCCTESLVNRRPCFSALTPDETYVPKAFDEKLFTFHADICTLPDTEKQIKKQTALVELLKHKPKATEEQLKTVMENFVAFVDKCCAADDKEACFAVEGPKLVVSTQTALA
CMC [2] [mM],LogPA− [3],Albumin binding (%) [4] [%],pKa [5],CMpH [6],"solubility thermodynamic at 1 week ([1]; simulated gastric fluid, thermodynamic from solid) [µM]",Compound,solubility thermodynamic at 1 week [1] [µM],STCMC [2] [Dyne/cm]
20,0.5,95,5,7.9,–,"C[C@H](CC(=O)O)[C@H]1CC[C@H]2[C@@H]3[C@H](O)C[C@@H]4C[C@H](O)CC[C@]4(C)[C@H]3CC[C@]12C [Nor-CDCA, 24-nor-CDCA, reference compound]",23,–
2.9,2.5,96,5,7.2,9,"CC[C@H]1[C@@H](O)C2C3CC[C@H]([C@H](C)CCC(=O)O)[C@@]3(C)CCC2[C@@]2(C)CC[C@@H](O)C[C@@H]12 (some centres unmarked) [Ref. Cmpd. B, reference compound]",–,48.8

Compound,CMC [2] [mM],LogPA− [3],Albumin binding (%) [4] [%],pKa [5],CMpH [6],"solubility thermodynamic at 1 week ([1]; simulated gastric fluid, thermodynamic from solid) [µM]",solubility thermodynamic at 1 week [1] [µM],STCMC [2] [Dyne/cm]
"C[C@H](CCC(=O)NCC(=O)O)[C@H]1CC[C@H]2[C@@H]3[C@H](O)C[C@@H]4C[C@H](O)CC[C@]4(C)[C@H]3CC[C@]12C [GCDCA, reference compound]",2,0.4,85,3.9,6.4,–,7,45.2
